Test results published in ChEMBL document CHEMBL1201862, “PubChem BioAssay data set” (2004).
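Following 48 hours of exposure in 96-well plates, responses at five concentrations were used to interpolate endpoints linearly. GI50 is the concentration that inhibits growth by half.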 Activity calls are given as the source filed them. No stated cut-off is given here; in the data, active = GI50 up to about 1.1 µM and inactive = higher.

Legend:
Assay in all cases: inhibition of tumour cell growth, NCI panel, 48 h
[1] = system: NCI-H226
[2] = system: KM12
[3] = system: SK-OV-3
[4] = system: 786-0
[5] = system: EKVX
[6] = system: OVCAR-5
[7] = system: T47D
[8] = system: OVCAR-8
[9] = system: UACC-257
[10] = system: SF-268
[11] = system: HT-29
[12] = system: M14
[13] = system: MCF7
[14] = system: HL-60
[15] = system: NCI-H460
[16] = system: A498
[17] = system: NCI-H23
[18] = system: OVCAR-4
[19] = system: Hs-578T

Measured: GI50

N/C(=N\OC(=O)NC(Cl)=C(Cl)Cl)c1cc(C(F)(F)F)cc(C(F)(F)F)c1
inactive: [1] 22.1 µM | [2] 15.8 µM | [3] 28.4 µM | [4] 16.2 µM | [5] 13.7 µM | [6] 21.1 µM | [7] 6.21 µM | [8] 20.1 µM | [9] 16.1 µM | [10] 18.7 µM | [11] 16.9 µM | [12] 25.2 µM | [13] 25.1 µM | [14] 12.8 µM | [15] 18.8 µM | [16] 17.5 µM | [17] 34.9 µM

Cn1c(=N)n[n+]([O-])c2ccccc21
inactive: [1] 6.98 µM | [18] 2.48 µM | [2] 19.9 µM | [3] 25.3 µM | [4] 4.24 µM | [5] 7.69 µM | [6] 2.25 µM | [8] 13 µM | [9] 2.71 µM | [11] 1.68 µM | [12] 2.02 µM | [13] 2.18 µM | [14] 2.79 µM | [17] 2.07 µM

N#C/C(=C\c1ccc(F)cc1)c1nc2ccccc2c(=O)[nH]1
inactive: [1] > 100 µM | [18] > 100 µM | [2] 3.91 µM | [3] > 100 µM | [4] > 100 µM | [5] > 100 µM | [6] > 100 µM | [7] > 100 µM | [8] > 100 µM | [9] > 100 µM | [10] 58.6 µM | [19] 79.6 µM | [11] > 100 µM | [12] > 100 µM | [13] > 100 µM | [14] > 100 µM | [15] > 100 µM

COc1ccc(Nc2ccc3ccccc3c2-c2c(O)ccc3ccccc23)cc1
inactive: [1] 16.6 µM | [18] 19 µM | [2] 16.1 µM | [4] 17.1 µM | [5] 14.9 µM | [6] 16.9 µM | [7] 15.6 µM | [8] 18.1 µM | [9] 22.1 µM | [10] 17.8 µM | [11] 16.1 µM | [13] 11.8 µM | [14] 31.1 µM | [15] 16.4 µM | [17] 15.2 µM

COc1cc([C@H]2CC(=O)C[C@H](c3cc(OC)c(OC)c(OC)c3)C23C(=O)c2ccccc2C3=O)cc(OC)c1OC
inactive: [1] 54.5 µM | [2] > 100 µM | [3] 37.3 µM | [4] 77.6 µM | [5] > 100 µM | [6] > 100 µM | [7] > 100 µM | [8] 40 µM | [9] > 100 µM | [10] > 100 µM | [19] 46.6 µM | [11] > 100 µM | [12] > 100 µM | [13] 71.3 µM | [15] 91.2 µM | [17] > 100 µM

CC(=O)OCC12CC(CC1OC(C)=O)c1ccccc12 (configuration not stated)
inactive: [1] > 100 µM | [18] > 100 µM | [3] > 100 µM | [4] > 100 µM | [6] > 100 µM | [8] > 100 µM | [9] > 100 µM | [10] > 100 µM | [11] > 100 µM | [12] > 100 µM | [14] > 100 µM | [15] > 100 µM | [16] > 100 µM | [17] > 100 µM

COc1ccccc1C(C1=C(O)COC1=O)c1cc2c(cc1OC(C)=O)OCO2 (configuration not stated)
inactive: [1] > 100 µM | [18] > 100 µM | [2] > 100 µM | [3] > 100 µM | [4] > 100 µM | [5] > 100 µM | [6] > 100 µM | [8] > 100 µM | [9] > 100 µM | [10] > 100 µM | [19] > 100 µM | [11] > 100 µM | [12] > 100 µM | [13] > 100 µM | [14] > 100 µM | [15] > 100 µM | [16] > 100 µM | [17] > 100 µM

COC(=O)[C@]1(c2cc3ccccc3[nH]2)CC2CN(C(=O)OCc3ccccc3)C1C=C2OC (some centres not stated)
inactive: [1] 23.1 µM | [18] 24.9 µM | [2] 29 µM | [3] 36.9 µM | [4] 36.7 µM | [5] 36.5 µM | [6] 21.3 µM | [7] 35.8 µM | [8] 43.4 µM | [9] 23 µM | [10] 37.2 µM | [11] 25.7 µM | [12] 20.8 µM | [13] 25.6 µM | [14] 22.8 µM | [15] 33.1 µM | [17] 40.7 µM

COC1C(O)C(C)OC(O[C@H]2CC[C@@]3(C)C(CC[C@@H]4[C@@H]3CC[C@]3(C)[C@@H](C(C)OC5OC(CO)C(O)C(O)C5O)CC[C@]43O)C2)C1O (some centres not stated)
inactive: [1] > 25 µM | [18] > 25 µM | [2] > 25 µM | [3] > 25 µM | [4] > 25 µM | [5] > 25 µM | [6] > 25 µM | [8] > 25 µM | [9] > 25 µM | [10] > 25 µM | [19] > 25 µM | [11] > 25 µM | [12] > 25 µM | [13] > 25 µM | [14] > 25 µM | [15] > 25 µM | [16] > 25 µM | [17] > 25 µM

[N-]=[N+]=CC(=O)CCC(=O)N(c1ccccc1)c1ccccc1
inactive: [1] > 10 µM | [2] > 10 µM | [3] > 10 µM | [4] > 10 µM | [5] > 10 µM | [6] > 10 µM | [7] > 10 µM | [8] > 10 µM | [9] > 10 µM | [10] > 10 µM | [11] > 10 µM | [12] > 10 µM | [13] > 10 µM | [14] > 10 µM | [15] > 10 µM | [16] > 10 µM | [17] > 10 µM

Clc1ccc(-c2nc3cc(Cl)ccc3[nH]2)cc1
inactive: [1] 50 µM | [18] 58.1 µM | [2] 24 µM | [3] 39.3 µM | [4] 35.2 µM | [5] 34.9 µM | [7] 26.5 µM | [8] 37.6 µM | [9] 43.3 µM | [10] 45.5 µM | [19] 30.8 µM | [11] 33.6 µM | [12] 36.4 µM | [13] 35.6 µM | [14] 39.9 µM | [15] 31.3 µM | [17] 27.6 µM

O=C(CCCN1CCC2(CC1)CC(=O)N(N1CCOCC1)C2=O)c1ccccc1
inactive: [1] > 100 µM | [2] > 100 µM | [3] > 100 µM | [4] > 100 µM | [5] > 100 µM | [6] > 100 µM | [7] > 100 µM | [8] > 100 µM | [9] > 100 µM | [10] > 100 µM | [11] > 100 µM | [12] > 100 µM | [13] > 100 µM | [14] > 100 µM | [17] > 100 µM

Cc1ccc(/C=C2\N=C(N3CCCCC3)NC2=O)cc1
inactive: [1] > 100 µM | [18] > 100 µM | [2] > 100 µM | [3] > 100 µM | [4] > 100 µM | [5] > 100 µM | [6] > 100 µM | [7] 58.1 µM | [8] 64.1 µM | [9] > 100 µM | [10] 98.6 µM | [19] 70.8 µM | [11] 95.9 µM | [12] > 100 µM | [13] > 100 µM | [14] 71.1 µM | [17] > 100 µM

O=C(Nc1nc(C23CC4CC(CC(C4)C2)C3)cs1)c1cc2cc(Cl)ccc2oc1=O
inactive: [1] > 100 µM | [18] > 100 µM | [2] > 100 µM | [4] > 100 µM | [5] > 100 µM | [6] > 100 µM | [8] > 100 µM | [9] > 100 µM | [10] > 10 µM | [19] 71.1 µM | [11] > 100 µM | [13] > 100 µM | [14] > 100 µM | [15] > 100 µM | [16] > 100 µM | [17] > 100 µM

N#Cc1ccccc1C#C/C=C\C#Cc1ccccn1
inactive: [18] 75.9 µM | [3] 25.1 µM | [4] 20.3 µM | [5] 22.9 µM | [6] 28.6 µM | [7] 20.8 µM | [8] 13.1 µM | [9] 13.7 µM | [10] 16.1 µM | [19] 16.4 µM | [11] 18 µM | [12] 15.5 µM | [13] 14.4 µM | [14] 6.71 µM | [15] 20.4 µM | [17] 12.3 µM

O=C(Cc1csc(N/N=C2\C(=O)Nc3ccccc32)n1)Nc1ccccc1
inactive: [1] 10 µM | [18] 41.5 µM | [2] 29.2 µM | [3] 30.3 µM | [4] 17.7 µM | [5] 19.9 µM | [6] > 100 µM | [7] 28.4 µM | [8] 21.1 µM | [9] 25 µM | [10] 17.7 µM | [11] 27 µM | [12] 38.3 µM | [13] 54.3 µM | [14] 37.1 µM | [15] 31.6 µM | [16] 40.6 µM | [17] 38.9 µM
